Results: patent US8110570B2, “Modulators of acetyl-coenzyme A carboxylase and methods of use thereof” (Cropsolution, Inc., priority 2008, dated 2012)
Values belong to the molecule of their own block, whether it stands above or below them.

Experiments:
[1] = system: HepG2 cells; experiment: Fatty acid synthesis assay, 14C-acetate incorporation into phospholipids; type: cell-based; conditions: Homo sapiens, 24 h, read-out: inhibition of radiolabel incorporation into phospholipids
From the text: (§1) The in vivo ACC inhibitory activity of compounds in this invention can be confirmed in cultured cells using standard procedures that are well known to those skilled in the art. For example, since ACC catalyzes the first committed step in fatty acid biosynthesis, the in vivo activity of compounds can be confirmed by measuring their ability to prevent the formation of radiolabeled fatty acids from radiolabeled acetate in cultured human hepatoma cells (HepG2). In addition, since the malonyl-CoA produced by ACC inhibits fatty acid oxidation, the in vivo ACC inhibitory activity of compounds can be further confirmed by measuring the stimulation of fatty acid oxidation in cultured mouse myoblast cells (C2C12).
Fatty acid synthesis assays are performed with slight modifications to published procedures (Beckers et al., Cancer Res, 2007, 67: 8180-8187; Wang, J Lipid Res., 2006, 47:2028-41). Briefly, HepG2 cells are grown in Dulbecco's modified eagles medium containing 10% fetal calf serum in 6-well culture plates. Cells are treated for 24 h with test compounds added as DMSO stock solutions to a final DMSO concentration of 0.5% (v/v). After test compound incubation, ^14C—[2]-acetate is added (3 μCi/6 well plate) and cells are further incubated for 4 hrs. Cells are then harvested in 40% methanol and assayed for total protein. Total lipids are extracted with chloroform:methanol (2:1) and ^14C-radioactivity is quantified in the aqueous and organic phases. Total lipids in the organic phase are separated by thin-layer chromatography (TLC, silica gel 60A) using hexane:ether:acetic acid (90:30:1) as the mobile phase. Radioactivity distribution of lipid classes on TLC plates is quantified by phosphorimaging (Molecular Dynamics Storm 820). Compound 6 inhibited radiolabel incorporation into phospholipids 32% and 14% at 10 μM and 1 μM, respectively, while Compound 2 inhibited radiolabel incorporation into phospholipids 93% and 42% at 10 μM and 1 μM, respectively.

[2] = target: uACC (Ustilago maydis ACC) (Ustilago maydis, UniProt A0A0D1DYD5); experiment: [14C]bicarbonate incorporation assay, overall ACC activity; type: biochemical
[3] = target: T1, hACC1 (Homo sapiens, UniProt Q13085); experiment: as above; type: biochemical; conditions: recombinant hACC1, overall ACC activity
T1 construct: PCR primers were designed for full-length hACC1 and hACC2 using GenBank submissions AY237919 and AJ575592, respectively; His tag (C); made in house; host or cells: baculovirus, Sf9 insect cells
Procedure, shortened: (§2)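 His-tagged full-length hACC1 or hACC2 (residues 1-148 deleted, Met-Gly added), expressed in sf9 cells with biotin and purified, were assayed by [14C]bicarbonate incorporation into acetyl-CoA. Reactions at pH 7.4 with 2 mM acetyl-CoA, 12 mM NaHCO3 and 1% DMSO were started with 2 mM ATP and run 10 min at 37° C. Acid-stable label was counted and IC50 obtained from dose-response fits.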

[4] = target: T2, hACC2 (Homo sapiens, UniProt O00763); experiment: as above; type: biochemical; conditions: recombinant hACC2, overall ACC activity
T2 construct: delete amino acids 1-148 and add Met-Gly in front of Lys149 in the final product; His tag (C); made in house; host or cells: baculovirus, Sf9 insect cells
Procedure, shortened: as §2

[5] = system: C2C12 cells; experiment: Fatty acid oxidation assay, [1-14C]palmitate to CO2; type: cell-based, mouse; conditions: compared to untreated controls
From the text: as §1
Fatty acid oxidation assays are performed essentially as described (Beckers et al., Cancer Res, 2007, 67: 8180-8187). Briefly, C2C12 cells are plated at 600,000 cells/T25 flask. The next day, media is changed and the DMSO with or without test compound is added to a final concentration of 0.5% (v/v). After 1 h at 37° C. in atmosphere of 5% CO2, freshly made 2 uCi of FA-free bovine serum albumin-[1-^14C] palmitate complex is added to each flask. The flasks are then sealed with a stopper and incubated 6 h at 37° C. after which evolved CO2 is liberated by injection of perchloric acid to final concentration of 5% and captured by incubating the flasks overnight in the presence of filter paper soaked with 5% KOH. The filters are then air-dried and incubated with scintillation cocktail overnight for equilibrium. Radioactivity is quantified by scintillation counting.

[6] = target: T3, hACC1-CT (Homo sapiens, UniProt Q13085); experiment: acetyl-CoA/malonyl-CoA isotope exchange assay, CT half-reaction; type: biochemical
T3 construct: PCR primers were designed for full-length hACC1 and hACC2 using GenBank submissions AY237919 and AJ575592, respectively; His tag (C); made in house; host or cells: baculovirus, Sf9 insect cells
Protocol: Overall ACC activity is comprised of two half-reactions, the BC reaction (the ATP-dependent carboxylation of biotin) and the CT reaction (the transfer of the carboxyl group from biotin to acetyl-CoA to form malonyl-CoA). Thus, it is of interest to localize the site of action of ACC inhibitors. To this end, representative compounds are tested in an acetyl-CoA/malonyl-CoA isotope exchange reaction which specifically measures the CT-half reaction. This assay is performed with slight modifications of published procedures (Gregolin et al., J Biol Chem, 1968, 243:4227-4235; Rendina et al., J Agric Food Chem, 1990, 38:1282-1287). Briefly, the reaction mixture (50 μL) contained 50 mM Hepes (pH 7.4), 20 mM K-citrate, 1.5 mM MgSO4, 4 mM malonyl-CoA, 1.67 mM acetyl-CoA, 0.34 mM [^14C]acetyl-CoA (about 60 mCi/mmol), 0.75 mg/mL BSA, and 1% (v/v) DMSO with or without inhibitor. Reactions are initiated by the addition of hACCl (0.3 μg) or hACC2 (0.15 μg) enzyme and incubated at 37° C. for 10 min. Reactions are stopped by addition of a 0.2M sodium arsenate solution containing 1U of phosphotransacetylase (13.5 μL) and incubation at room temperature for 30 min. […] The samples are then resuspended in water (200 μL), added to scintillation cocktail (3 mL), and counted in a scintillation counter to quantify radiolabel incorporated into malonyl-CoA. […]

[7] = system: MDA-MB-231 human breast cancer cells; experiment: MTT Cell Proliferation Assay; type: cell-based; conditions: 72 hours, read-out: Percent of Control MDA-MB-231
Protocol: (§3) The anti-proliferative activity of test compounds against human tumor cell lines is evaluated in vitro using the ATCC's MTT Cell Proliferation Assay (Catalog No. 30-100K). Cell lines are grown using media, serum, and culture conditions recommended by the ATCC. Stock cultures are allowed to grow to 70-80% confluence. Cells are seeded into 96-well culture plates at a predetermined density on day 0 in complete medium (0.1 mL). Plates are placed in a humidified incubator at 37° C. with 5% CO2 and 95% HEPA filtered room air for 24 hours. At this point compound (0.1 mL of 2× stock (in media)) is added to the indicated wells and the plates are returned to the incubator for 72 hours. Cell proliferation is measured by addition of MTT reagent to each well and incubated for an additional 4 hours, followed by addition of cell lysis/MTT solublization reagent and incubating overnight. […] Results are expressed as percent of control cells versus compound concentration. Compounds of the present invention, and salts thereof, were evaluated for anti-proliferative activity as described above.

[8] = system: HCT-116 human colon cancer cells; experiment: MTT Cell Proliferation Assay; type: cell-based; conditions: 72 hours, read-out: Percent of Control HCT-116
Protocol: as §3

[9] = system: A2780 human ovary cancer cells; experiment: MTT Cell Proliferation Assay; type: cell-based; conditions: 72 hours, read-out: Percent of Control A2780
Protocol: as §3

[10] = system: PC-3 human prostate cancer cells; experiment: MTT Cell Proliferation Assay; type: cell-based; conditions: 72 hours, read-out: Percent of Control PC-3
Protocol: as §3

[11] = system: hepatic fatty acid synthesis; experiment: In vivo inhibition of rat hepatic fatty acid synthesis; conditions: oral
Protocol: In vivo measurement of fatty acid synthesis inhibition in mammals. Incorporation of [2-^14C]acetate into saponifiable lipids in the livers of mammals (e.g. Sprague Dawley rats, Charles River Laboratories, Boston, Mass. or Harlan Laboratories, Indianapolis, Ind.) can be measured as described previously (Harwood Jr. H. J. et al., J Biol Chem, 39: 37099-37111 (2003)). For example, animals given food and water ad libitum are treated orally at volume of 1.0 ml/200 g of body weight with either an aqueous solution containing 0.5% methyl cellulose (vehicle) or an aqueous solution containing 0.5% methyl cellulose containing test compound. One hour after compound administration, animals receive an intraperitoneal injection of [2-^14C]acetate (0.02 mL, 1 mCi/mL; 50 mCi/mmol. One hour after radiolabel administration, animals are sacrificed by CO2 asphyxiation, and two liver pieces (about 0.75 g each) are removed and saponified at 70° C. for 120 min in 2.5 M NaOH (1.5 mL). After saponification, absolute EtOH (2.5 mL) is added to each sample and the solutions are mixed and allowed to stand overnight. Petroleum ether (4.8 mL) is then added to each sample, and after vigorous shaking (2 min) the mixtures are centrifuged at 1000×g (5 min). The petroleum ether layer containing the nonsaponifiable lipids is removed and discarded. The remaining aqueous layer is acidified (pH<2) by addition of 12 M HCl (0.6 mL) and extracted two times with petroleum ether (4.8 mL). The pooled organic fractions are transferred to liquid scintillation vials, dried under nitrogen, dissolved in Aquasol scintillation fluid (7 ml), and radioactivity is quantified by liquid scintillation counting. Inhibition of fatty acid synthesis by the test compound is expressed as a relative percent inhibition of measured incorporation of [2-^14C]acetate into saponifiable lipids during the interval between [2-^14C]acetate injection and CO2 asphyxiation in animals receiving test compound, compared to control animals receiving only the vehicle.
Compounds of the present invention, and salts thereof, were evaluated for inhibition of fatty acid synthesis as described above.

Sequence of uACC (Ustilago maydis ACC) (A0A0D1DYD5 entry or part of it): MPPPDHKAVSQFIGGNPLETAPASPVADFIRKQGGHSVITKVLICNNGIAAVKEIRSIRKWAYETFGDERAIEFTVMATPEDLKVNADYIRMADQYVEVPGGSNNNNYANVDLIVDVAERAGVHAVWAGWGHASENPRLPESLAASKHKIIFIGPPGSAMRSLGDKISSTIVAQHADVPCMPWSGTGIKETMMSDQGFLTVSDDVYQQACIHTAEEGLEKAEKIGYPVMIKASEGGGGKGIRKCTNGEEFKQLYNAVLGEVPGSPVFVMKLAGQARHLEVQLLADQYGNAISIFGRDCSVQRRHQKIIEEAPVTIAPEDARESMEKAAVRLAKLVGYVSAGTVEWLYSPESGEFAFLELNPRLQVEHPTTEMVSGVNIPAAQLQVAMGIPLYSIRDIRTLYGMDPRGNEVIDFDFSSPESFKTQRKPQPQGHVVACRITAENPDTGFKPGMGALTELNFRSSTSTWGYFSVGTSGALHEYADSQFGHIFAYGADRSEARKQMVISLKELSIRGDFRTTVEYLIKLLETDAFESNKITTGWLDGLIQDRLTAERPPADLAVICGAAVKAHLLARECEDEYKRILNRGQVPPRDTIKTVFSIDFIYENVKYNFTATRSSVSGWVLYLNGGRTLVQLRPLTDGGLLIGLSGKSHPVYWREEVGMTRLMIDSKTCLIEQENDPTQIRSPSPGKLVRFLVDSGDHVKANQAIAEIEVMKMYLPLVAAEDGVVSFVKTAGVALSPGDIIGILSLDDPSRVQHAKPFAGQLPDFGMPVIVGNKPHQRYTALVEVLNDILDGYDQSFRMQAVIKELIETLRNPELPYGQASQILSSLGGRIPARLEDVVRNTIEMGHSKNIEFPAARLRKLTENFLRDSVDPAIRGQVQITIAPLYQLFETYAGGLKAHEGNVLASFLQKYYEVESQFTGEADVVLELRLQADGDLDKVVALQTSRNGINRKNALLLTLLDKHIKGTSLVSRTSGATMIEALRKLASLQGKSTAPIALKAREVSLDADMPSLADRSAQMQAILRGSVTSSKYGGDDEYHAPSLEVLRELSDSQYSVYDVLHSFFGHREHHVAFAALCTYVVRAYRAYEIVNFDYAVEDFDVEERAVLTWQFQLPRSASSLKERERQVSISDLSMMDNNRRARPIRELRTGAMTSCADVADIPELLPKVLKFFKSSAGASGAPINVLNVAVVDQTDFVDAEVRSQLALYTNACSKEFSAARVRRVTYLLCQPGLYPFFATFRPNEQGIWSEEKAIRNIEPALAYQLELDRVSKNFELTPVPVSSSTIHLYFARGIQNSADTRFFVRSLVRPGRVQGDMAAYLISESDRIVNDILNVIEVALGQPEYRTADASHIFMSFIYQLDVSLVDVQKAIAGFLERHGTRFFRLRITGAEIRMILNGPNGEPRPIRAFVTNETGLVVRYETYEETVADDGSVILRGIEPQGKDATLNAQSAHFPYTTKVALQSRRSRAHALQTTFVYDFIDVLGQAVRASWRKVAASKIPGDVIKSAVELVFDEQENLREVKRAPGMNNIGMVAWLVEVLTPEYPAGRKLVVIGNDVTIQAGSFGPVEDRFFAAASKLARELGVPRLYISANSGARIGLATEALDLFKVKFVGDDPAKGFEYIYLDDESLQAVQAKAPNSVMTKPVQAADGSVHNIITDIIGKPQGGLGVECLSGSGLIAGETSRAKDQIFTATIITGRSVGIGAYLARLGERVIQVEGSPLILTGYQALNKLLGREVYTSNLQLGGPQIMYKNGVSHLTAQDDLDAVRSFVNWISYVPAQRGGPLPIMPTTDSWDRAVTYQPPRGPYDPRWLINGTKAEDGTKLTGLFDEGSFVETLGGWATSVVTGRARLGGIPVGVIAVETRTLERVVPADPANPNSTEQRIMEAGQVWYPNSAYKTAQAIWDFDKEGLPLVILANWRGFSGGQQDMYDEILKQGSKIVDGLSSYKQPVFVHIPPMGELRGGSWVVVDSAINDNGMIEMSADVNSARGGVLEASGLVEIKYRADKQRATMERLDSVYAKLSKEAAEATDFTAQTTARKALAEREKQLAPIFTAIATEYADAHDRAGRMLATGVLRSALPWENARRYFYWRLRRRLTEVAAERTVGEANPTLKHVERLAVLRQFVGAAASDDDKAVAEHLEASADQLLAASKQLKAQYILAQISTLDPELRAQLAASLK
T2 sequence (O00763 149-2458 limits assumed): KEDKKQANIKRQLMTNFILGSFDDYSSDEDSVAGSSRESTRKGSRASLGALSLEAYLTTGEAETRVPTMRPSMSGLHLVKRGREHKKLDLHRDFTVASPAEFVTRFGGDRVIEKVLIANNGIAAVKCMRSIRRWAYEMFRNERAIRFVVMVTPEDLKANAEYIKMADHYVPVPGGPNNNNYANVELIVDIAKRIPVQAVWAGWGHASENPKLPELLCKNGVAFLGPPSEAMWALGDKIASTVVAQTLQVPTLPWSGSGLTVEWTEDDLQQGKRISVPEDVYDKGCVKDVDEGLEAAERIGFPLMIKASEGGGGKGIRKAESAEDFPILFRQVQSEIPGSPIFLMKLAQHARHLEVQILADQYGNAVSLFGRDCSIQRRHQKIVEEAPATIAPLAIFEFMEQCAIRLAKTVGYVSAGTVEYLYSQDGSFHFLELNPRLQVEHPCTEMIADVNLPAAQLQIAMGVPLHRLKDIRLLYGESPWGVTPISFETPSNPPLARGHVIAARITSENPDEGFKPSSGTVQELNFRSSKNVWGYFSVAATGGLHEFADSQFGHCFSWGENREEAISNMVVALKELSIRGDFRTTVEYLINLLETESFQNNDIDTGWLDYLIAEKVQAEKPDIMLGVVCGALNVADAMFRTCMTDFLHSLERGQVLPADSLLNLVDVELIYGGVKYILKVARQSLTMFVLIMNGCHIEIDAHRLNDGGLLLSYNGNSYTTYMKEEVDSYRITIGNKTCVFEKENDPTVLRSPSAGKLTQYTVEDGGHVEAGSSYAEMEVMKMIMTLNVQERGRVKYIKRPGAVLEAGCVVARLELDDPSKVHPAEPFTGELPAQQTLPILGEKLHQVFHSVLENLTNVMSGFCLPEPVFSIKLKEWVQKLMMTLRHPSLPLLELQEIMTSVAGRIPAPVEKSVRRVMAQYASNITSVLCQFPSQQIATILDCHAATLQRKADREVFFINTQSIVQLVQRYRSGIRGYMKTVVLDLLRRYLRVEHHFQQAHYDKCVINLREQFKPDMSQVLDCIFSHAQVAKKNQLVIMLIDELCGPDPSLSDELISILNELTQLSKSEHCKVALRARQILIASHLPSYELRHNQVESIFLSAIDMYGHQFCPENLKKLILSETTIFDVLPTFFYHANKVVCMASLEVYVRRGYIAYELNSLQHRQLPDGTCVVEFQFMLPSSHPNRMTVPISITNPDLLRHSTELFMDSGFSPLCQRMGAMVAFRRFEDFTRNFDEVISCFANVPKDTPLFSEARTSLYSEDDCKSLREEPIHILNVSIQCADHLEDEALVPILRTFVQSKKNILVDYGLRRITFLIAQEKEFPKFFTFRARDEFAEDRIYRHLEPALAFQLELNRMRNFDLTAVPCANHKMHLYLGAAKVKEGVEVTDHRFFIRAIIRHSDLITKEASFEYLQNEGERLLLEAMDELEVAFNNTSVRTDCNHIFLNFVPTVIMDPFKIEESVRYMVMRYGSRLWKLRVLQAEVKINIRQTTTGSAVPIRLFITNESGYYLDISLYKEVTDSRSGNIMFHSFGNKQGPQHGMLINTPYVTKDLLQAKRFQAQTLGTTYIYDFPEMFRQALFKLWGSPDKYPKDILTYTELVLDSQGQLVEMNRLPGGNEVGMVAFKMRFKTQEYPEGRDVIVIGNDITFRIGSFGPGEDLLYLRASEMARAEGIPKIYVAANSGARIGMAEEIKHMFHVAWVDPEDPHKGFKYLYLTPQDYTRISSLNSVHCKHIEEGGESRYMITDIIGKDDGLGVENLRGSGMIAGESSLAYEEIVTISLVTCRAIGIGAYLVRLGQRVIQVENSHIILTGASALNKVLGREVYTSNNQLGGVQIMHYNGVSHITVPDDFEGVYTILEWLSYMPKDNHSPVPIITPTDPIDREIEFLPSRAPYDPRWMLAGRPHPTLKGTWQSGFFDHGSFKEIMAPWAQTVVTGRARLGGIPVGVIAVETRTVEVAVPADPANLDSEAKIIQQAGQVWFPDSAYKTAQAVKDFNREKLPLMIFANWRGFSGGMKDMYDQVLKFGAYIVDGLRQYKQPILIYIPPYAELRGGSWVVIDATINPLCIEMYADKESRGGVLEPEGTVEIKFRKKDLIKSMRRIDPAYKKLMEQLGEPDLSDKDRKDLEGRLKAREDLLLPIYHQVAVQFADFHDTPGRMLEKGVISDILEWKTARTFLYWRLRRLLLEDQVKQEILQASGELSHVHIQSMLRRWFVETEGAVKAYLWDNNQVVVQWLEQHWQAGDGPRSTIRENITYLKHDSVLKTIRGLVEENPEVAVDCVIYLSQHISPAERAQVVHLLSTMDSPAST

IC50 [3]: 7 nM
Structure (SMILES): COc1cc(C(=O)N2CCC3(CC2)NC(=O)c2cc(OC(F)(F)F)ccc2O3)nc2c(OC)cccc12 [Compound 172]
activity at 3.3 µM [7]: 54.1%
activity at 10 µM [7]: 29.5%
activity at 3.3 µM [8]: 61.4%
activity at 10 µM [8]: 41.6%
activity at 3.3 µM [9]: 97.4%
activity at 10 µM [9]: 65.5%
activity at 3.3 µM [10]: 63%
activity at 10 µM [10]: 55.7%
Percent Inhibition at 10 mg/Kg [11]: 5%

IC50 [3]: 2 nM
IC50 [4]: 2 nM
Structure (SMILES): COc1cc(C(=O)N2CCC3(CC2)NC(=O)c2cc(C(C)C)ccc2O3)nc2c(OC)cccc12 [Compound 186]
activity at 3.3 µM [7]: 74.2%
activity at 10 µM [7]: 39.2%
activity at 3.3 µM [8]: 53.6%
activity at 10 µM [8]: 41.8%
activity at 3.3 µM [9]: 59.5%
activity at 10 µM [9]: 52.1%
activity at 3.3 µM [10]: 48.9%
activity at 10 µM [10]: 33.2%
Percent Inhibition at 10 mg/Kg [11]: 55%
Percent Inhibition at 30 mg/Kg [11]: 78%

Continued, molecule first:

Structure (SMILES): Cc1c(C(=O)N2CCC3(CC2)NC(=O)c2ccccc2O3)[nH]c2ccc(F)cc12 [Compound 6, 1′-[(5-Fluoro-3-methyl-1H-indol-2-yl)carbonyl]spiro[2H-1,3-benzoxazin-2,4′-piperidin]-4-(3H)-one]
inhibition at 1 µM ([1]; HepG2, 1 μM): 14%
inhibition at 10 µM ([1]; HepG2, 10 μM): 32%
IC50 [2]: 40000 nM
IC50 [3]: 2300 nM
IC50 [4]: 2000 nM
stimulation of fatty acid oxidation ([5]; C2C12, 0.2 μM): 260%
stimulation of fatty acid oxidation ([5]; C2C12, 2 μM): 299%

Structure (SMILES): COc1ccc(OC)c2[nH]c(C(=O)N3CCC4(CC3)NC(=O)c3ccccc3O4)cc12 [Compound 7, 1′-[(4,7-Dimethoxy-1H-indol-2-yl)carbonyl]spiro[2H-1,3-benzoxazin-2,4′-piperidin]-4-(3H)-one]
IC50 [6]: 1200 nM
IC50 [2]: 20000 nM
IC50 [3]: 1100 nM
IC50 [4]: 850 nM

Structure (SMILES): CCOc1ccc2c(c1)C(=O)NC1(CCN(C(=O)c3[nH]c4c(OC)cccc4c3C)CC1)O2 [Compound 144]
IC50 [2]: 14000 nM
IC50 [3]: 61 nM
IC50 [4]: 88 nM
activity at 3.3 µM [7]: 88.9%
activity at 10 µM [7]: 34.5%
activity at 3.3 µM [8]: 64.9%
activity at 10 µM [8]: 39.1%
activity at 3.3 µM [9]: 65%
activity at 10 µM [9]: 25.1%
activity at 3.3 µM [10]: 76.5%
activity at 10 µM [10]: 67.2%
Percent Inhibition at 30 mg/Kg [11]: 9%

Structure (SMILES): COc1cc(C(=O)N2CCC3(CC2)NC(=O)c2cc(N4CCOCC4)ccc2O3)nc2c(OC)cccc12 [Compound 196]
IC50 [3]: 200 nM
IC50 [4]: 21 nM
activity at 3.3 µM [7]: 73.7%
activity at 10 µM [7]: 56.1%
activity at 3.3 µM [8]: 63.6%
activity at 10 µM [8]: 58.5%
activity at 3.3 µM [9]: 81.6%
activity at 10 µM [9]: 56.4%
activity at 3.3 µM [10]: 50.7%
activity at 10 µM [10]: 39%
Percent Inhibition at 10 mg/Kg [11]: 67%
